In patent US20260130933A1, “PHARMACEUTICAL COMPOSITION FOR PREVENTION OR TREATMENT OF NEPHROPATHY AND/OR DIABETES MELLITUS, COMPRISING ENAVOGLIFLOZIN” (DAEWOONG PHARMACEUTICAL CO., LTD., priority 2022, published 2026):

Assay: Example 1: phase 3 trial, enavogliflozin 0.3 mg once a day as monotherapy vs placebo for 24 weeks in patients with type 2 diabetes (HbA1c, FPG, C-peptide, body weight, lipids, blood pressure, HOMA, UACR, UGCR, adiponectin, leptin, safety)
Format: in vivo, human
Method: When a subject voluntarily gave written consent to participate in this clinical trial, a screening test was conducted. […] However, when the administration of a hypoglycemic agent was interrupted before the clinical trial Visit 1 (screening), at least an 8-week washout period, including the discontinuation period, was required, and during this period, a stable diet and exercise program was followed. Naïve patients were screened without a separate washout period, and the criteria for naïve patients were defined as patients who had not been administered hypoglycemic agents within 24 weeks prior to the date of obtaining written consent. […] In addition, they were instructed to maintain regular exercise and dietary control starting from 8 weeks prior to screening without changing their daily life patterns during the clinical trial period.

## OC[C@H]1O[C@@H](c2cc(Cc3ccc(C4CC4)cc3)c(Cl)c3c2CCO3)[C@H](O)[C@@H](O)[C@@H]1O [Enavogliflozin, (2S,3R,4R,5S,6R)-2-(7-chloro-6 (4-cyclopropylbenzyl)-2,3-dihydrobenzofuran-4-yl)-6-(hydroxymethyl)tetrahydro-2H-pyran-3,4,5-triol]
Week 6
  fasting C-peptide, Mean (SD): 0.66 ng/mL
  systolic blood pressure change from baseline, LS mean: −5.38 mmHg
  systolic blood pressure change from baseline, Mean: −4.81 mmHg
  total cholesterol change from baseline, LS mean: 5.76 mg/dL
  total cholesterol change from baseline, Mean: 5.75 mg/dL
  total cholesterol, Mean: 166.11 mg/dL
  triglycerides change from baseline, LS mean: -5.05 mg/dL
  triglycerides change from baseline, Mean: -1.21 mg/dL
  triglycerides, Mean: 116.13 mg/dL
Week 6, vs placebo
  FPG change from baseline, LS mean difference: -26.91 mg/dL
  HDL-C change from baseline, LS mean difference: 1.89 mg/dL
  HOMA-IR change from baseline, LS mean difference: −1.81
  HOMA-β change from baseline, LS mean difference: 3.30
  HbA1c change from baseline, LS mean difference: −0.52 % p
  LDL-C change from baseline, LS mean difference: 0.64 mg/dL
  Odds ratio for achieving HbA1c<6.5%: 3.29
  Odds ratio for achieving HbA1c<7%: 6.55
  Odds ratio for achieving therapeutic response: 12.84
  UACR change from baseline, LS mean difference: 7.96 g/kg
  UGCR change from baseline, LS mean difference: 52.97 mg/mg
  adiponectin change from baseline, LS mean difference: 0.26 µg/mL
  body weight change from baseline, LS mean difference: -1.45 kg
  diastolic blood pressure change from baseline, LS mean difference: −2.43 mmHg
  fasting C-peptide change from baseline, LS mean difference: -0.11 ng/mL
  leptin change from baseline, LS mean difference: -2.89 ng/mL
  systolic blood pressure change from baseline, LS mean difference: −4.07 mmHg
  total cholesterol change from baseline, LS mean difference: 1.95 mg/dL
  triglycerides change from baseline, LS mean difference: -17.69 mg/dL
Week 6, vs placebo, listed as enavogliflozin
  HbA1c change from baseline, LS mean difference: -0.52 % p
Week 12
  Body weight, Mean: 66.12 kg
  Diastolic blood pressure, Mean: 72.83 mmHg
  FPG change from baseline, LS mean (SE): −30.66(2.93) mg/dL
  FPG change from baseline, Mean (SD): −29.34(20.90) mg/dL
  FPG, Mean (SD): 111.66(13.55) mg/dL
  HDL-C change from baseline, LS mean: 2.35 mg/dL
  HDL-C change from baseline, Mean: 2.22 mg/dL
  HDL-C, Mean: 54.14 mg/dL
  HbA1c change from baseline, LS mean (SE): −0.84(0.07) % p
  HbA1c change from baseline, Mean (SD): −0.80(0.55) % p
  HbA1c, Mean (SD): 6.84(0.53) %
  LDL-C change from baseline, LS mean: -2.31 mg/dL
  LDL-C change from baseline, Mean: -0.09 mg/dL
  LDL-C, Mean: 95.38 mg/dL
  Subjects achieving HbA1c target of <6.5%: 22(26.83) %
  Subjects achieving HbA1c target of <7%: 54(65.85) %
  Subjects achieving therapeutic glycemic response (HbA1c change >0.5% or HbA1c<7%): 70(85.37) %
  Systolic blood pressure, Mean: 122.06 mmHg
  body weight change from baseline, LS mean: -2.59 kg
  body weight change from baseline, Mean: -2.65 kg
  diastolic blood pressure change from baseline, LS mean: −3.82 mmHg
  diastolic blood pressure change from baseline, Mean: −3.40 mmHg
  fasting C-peptide, Mean (SD): 0.64 ng/mL
  systolic blood pressure change from baseline, LS mean: −6.37 mmHg
  systolic blood pressure change from baseline, Mean: −5.78 mmHg
  total cholesterol change from baseline, LS mean: 4.75 mg/dL
  total cholesterol change from baseline, Mean: 5.99 mg/dL
  total cholesterol, Mean: 167.40 mg/dL
  triglycerides change from baseline, LS mean: 6.37 mg/dL
  triglycerides change from baseline, Mean: 2.90 mg/dL
  triglycerides, Mean: 120.34 mg/dL
Week 12, vs placebo
  FPG change from baseline, LS mean difference: -32.26 mg/dL
  HDL-C change from baseline, LS mean difference: 2.36 mg/dL
  HOMA-IR change from baseline, LS mean difference: −1.72
  HOMA-β change from baseline, LS mean difference: 12.09
  HbA1c change from baseline, LS mean difference: −0.71 % p
  LDL-C change from baseline, LS mean difference: -6.00 mg/dL
  Odds ratio for achieving HbA1c<6.5%: 7.58
  Odds ratio for achieving HbA1c<7%: 6.53
  Odds ratio for achieving therapeutic response: 14.77
  UACR change from baseline, LS mean difference: -15.16 g/kg
  UGCR change from baseline, LS mean difference: 51.21 mg/mg
  adiponectin change from baseline, LS mean difference: 0.67 µg/mL
  body weight change from baseline, LS mean difference: -1.66 kg
  diastolic blood pressure change from baseline, LS mean difference: −2.33 mmHg
  fasting C-peptide change from baseline, LS mean difference: -0.12 ng/mL
  leptin change from baseline, LS mean difference: -3.17 ng/mL
  systolic blood pressure change from baseline, LS mean difference: −3.06 mmHg
  total cholesterol change from baseline, LS mean difference: -4.04 mg/dL
  triglycerides change from baseline, LS mean difference: -10.37 mg/dL
Week 18
  Body weight, Mean: 65.32 kg
  Diastolic blood pressure, Mean: 72.60 mmHg
  FPG change from baseline, LS mean (SE): −31.97(3.23) mg/dL
  FPG change from baseline, Mean (SD): −30.52(22.34) mg/dL
  FPG, Mean (SD): 110.48(14.49) mg/dL
  HDL-C change from baseline, LS mean: 4.18 mg/dL
  HDL-C change from baseline, Mean: 3.62 mg/dL
  HDL-C, Mean: 55.55 mg/dL
  HbA1c change from baseline, LS mean (SE): −0.81(0.09) % p
  HbA1c change from baseline, Mean (SD): −0.77(0.67) % p
